Laboratory results reported in US10988477B2 (Merck Patent GmbH, priority 2018, dated 2021).

Legend:
GCN2 kinase = GCN2 kinase (Homo sapiens, UniProt Q9P2K8); assay: GCN2 enzyme inhibition assay (Transcreener ADP2 fluorescence polarization); assay type: biochemical; settings: 280 μM ATP
Procedure, shortened: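 Inhibition of 4 nM GCN2 was measured with compound up to 8 μM final, ATP 280 μM and (RS)7 peptide 200 μM over a 1 h, 25 °C reaction. ADP FP readout; IC50 and Ki(app) calculated from percent inhibition.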

[1] = molecular target: intracellular GCN2 (phosphorylation of the GCN2 substrate eIF2α) (Homo sapiens, UniProt Q9P2K8); assay: GCN2 cellular inhibition assay (AlphaScreen SureFire P-eIF2α Ser51, borrelidin-treated U2OS cells); assay type: cell-based; settings: biomarker assay, phosphorylated eIF2α Ser51 in borrelidin-treated U2OS cells
Procedure, shortened: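 Phospho-eIF2α (Ser51) in lysates was quantified by AlphaScreen SureFire after a 1 h, 37 °C treatment of U2OS cells with 10 μM borrelidin and compound at 4-fold dilutions starting from 40 μM final. Inhibition expressed in percent against wells stimulated by borrelidin alone.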

[2] = compounds of Formula II, 4 nM GCN2 kinase
[3] = Enzyme activity for compounds of Formula IV, Ki(app), 25° C.

Sequence of GCN2 kinase (Q9P2K8 whole entry): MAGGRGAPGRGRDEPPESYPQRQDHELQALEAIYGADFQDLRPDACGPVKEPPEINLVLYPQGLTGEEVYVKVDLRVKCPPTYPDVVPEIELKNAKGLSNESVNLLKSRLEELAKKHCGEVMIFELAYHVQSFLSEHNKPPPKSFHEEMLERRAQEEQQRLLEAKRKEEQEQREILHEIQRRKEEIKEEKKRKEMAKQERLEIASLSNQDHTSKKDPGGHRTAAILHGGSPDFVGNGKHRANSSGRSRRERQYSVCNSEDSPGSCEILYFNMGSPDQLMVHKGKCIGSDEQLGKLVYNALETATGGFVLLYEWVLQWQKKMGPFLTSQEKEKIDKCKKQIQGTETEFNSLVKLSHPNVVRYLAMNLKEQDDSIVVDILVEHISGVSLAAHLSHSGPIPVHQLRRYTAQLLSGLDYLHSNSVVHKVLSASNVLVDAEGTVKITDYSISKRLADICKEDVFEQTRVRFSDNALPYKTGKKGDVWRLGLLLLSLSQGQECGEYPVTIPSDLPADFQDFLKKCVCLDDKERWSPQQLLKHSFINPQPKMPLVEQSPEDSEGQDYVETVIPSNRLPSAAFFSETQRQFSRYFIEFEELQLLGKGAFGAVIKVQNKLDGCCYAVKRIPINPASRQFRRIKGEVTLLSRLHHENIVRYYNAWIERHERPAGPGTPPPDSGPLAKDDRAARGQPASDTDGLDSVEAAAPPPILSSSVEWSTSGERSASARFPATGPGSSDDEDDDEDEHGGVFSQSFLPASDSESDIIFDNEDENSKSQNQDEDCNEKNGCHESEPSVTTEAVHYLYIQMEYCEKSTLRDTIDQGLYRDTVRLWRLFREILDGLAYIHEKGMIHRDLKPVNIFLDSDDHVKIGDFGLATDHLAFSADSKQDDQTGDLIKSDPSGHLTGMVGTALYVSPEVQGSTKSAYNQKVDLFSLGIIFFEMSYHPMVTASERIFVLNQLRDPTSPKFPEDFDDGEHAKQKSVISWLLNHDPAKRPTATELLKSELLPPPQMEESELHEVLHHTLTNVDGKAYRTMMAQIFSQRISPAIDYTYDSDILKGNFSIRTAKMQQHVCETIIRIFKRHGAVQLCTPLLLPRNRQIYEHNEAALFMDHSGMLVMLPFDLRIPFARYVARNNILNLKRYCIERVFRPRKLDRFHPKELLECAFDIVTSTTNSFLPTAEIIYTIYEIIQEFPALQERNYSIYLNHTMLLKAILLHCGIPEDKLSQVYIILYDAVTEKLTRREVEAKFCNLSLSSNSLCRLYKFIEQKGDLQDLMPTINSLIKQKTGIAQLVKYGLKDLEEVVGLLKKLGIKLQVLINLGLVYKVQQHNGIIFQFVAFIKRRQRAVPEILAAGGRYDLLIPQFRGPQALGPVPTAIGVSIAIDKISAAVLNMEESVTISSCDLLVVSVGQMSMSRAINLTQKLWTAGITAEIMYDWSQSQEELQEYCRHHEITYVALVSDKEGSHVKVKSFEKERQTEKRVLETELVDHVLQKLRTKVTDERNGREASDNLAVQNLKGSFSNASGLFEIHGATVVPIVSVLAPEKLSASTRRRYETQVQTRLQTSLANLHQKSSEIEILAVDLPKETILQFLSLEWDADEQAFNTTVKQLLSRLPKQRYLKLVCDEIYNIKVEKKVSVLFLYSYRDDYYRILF
Sequence of intracellular GCN2 (phosphorylation of the GCN2 substrate eIF2α) (Q9P2K8 whole entry): as above

Ki (GCN2 kinase; [2])	IC50 ([1]; compounds of Formula II)	Ki (GCN2 kinase; [3])	IC50 ([1]; compounds of Formula IV)	Structure (SMILES)
		10 to 100 nM	500 to 5000 nM	CS(=O)(=O)NCC1CCN(c2ccnc(-c3cnc4cnc(Br)cn34)n2)C1 (stereo not shown) [IV-27, N-((1-(2-(6-Bromoimidazo[1,2-a]pyrazin-3-yl)pyrimidin-4-yl)pyrrolidin-3-yl)methyl)methanesulfonamide]
		< 10 nM	500 to 5000 nM	N#Cc1n[nH]cc1C1=CCCN(c2ccnc(-c3cnc4cnc(C(F)(F)F)cn34)n2)C1 [IV-548, 4-(1-(2-(6-(Trifluoromethyl)imidazo[1,2-a]pyrazin-3-yl)pyrimidin-4-yl)-1,2,5,6-tetrahydropyridin-3-yl)-1H-pyrazole-3-carbonitrile]
		100 to 1000 nM	> 5000 nM	FC(F)c1cn2c(-c3nccc(N4CCCC(c5cccnc5)C4)n3)cnc2cn1 (stereo not shown) [IV-52, 6-(Difluoromethyl)-3-(4-(3-(pyridin-3-yl)piperidin-1-yl)pyrimidin-2-yl)imidazo[1,2-a]pyrazine]
		10 to 100 nM	500 to 5000 nM	Cc1n[nH]c(C)c1C1CN(c2ccnc(-c3cnc4cnc(C(F)(F)F)cn34)n2)CC(C)N1 (single isomer, unassigned) [IV-465, 3-(4-(3-(3,5-Dimethyl-1H-pyrazol-4-yl)-5-methylpiperazin-1-yl)pyrimidin-2-yl)-6-(trifluoromethyl)imidazo[1,2-a]pyrazine]
		< 10 nM	500 to 5000 nM	CC1CC(C(N)=O)C(C)N(c2ccnc(-c3cnc4cnc(C(F)(F)F)cn34)n2)C1 (single isomer, unassigned) [IV-501, 2,5-Dimethyl-1-(2-(6-(trifluoromethyl)imidazo[1,2-a]pyrazin-3-yl)pyrimidin-4-yl)piperidine-3-carboxamide]
		100 to 1000 nM	> 5000 nM	N#CCc1cccc(-c2ccnc(-c3cnc4cnc(C(F)F)cn34)n2)c1 [IV-157, 2-(3-(2-(6-(Difluoromethyl)imidazo[1,2-a]pyrazin-3-yl)pyrimidin-4-yl)phenyl)acetonitrile]
		10 to 100 nM	500 to 5000 nM	CC1CN(c2nccc(-c3cnc4cnc(C(F)(F)F)cn34)n2)CC(c2cn[nH]c2)O1 (single isomer, unassigned) [IV-202, 2-Methyl-6-(1H-pyrazol-4-yl)-4-(4-(6-(trifluoromethyl)imidazo[1,2-a]pyrazin-3-yl)pyrimidin-2-yl)morpholine]
		10 to 100 nM	500 to 5000 nM	FC(F)(F)c1cn2c(-c3nccc(N4CCC(c5cn[nH]c5)CC4)n3)cnc2cn1 [IV-680, 3-(4-(4-(1H-Pyrazol-4-yl)piperidin-1-yl)pyrimidin-2-yl)-6-(trifluoromethyl)imidazo[1,2-a]pyrazine]
		100 to 1000 nM	> 5000 nM	OC[C@@H]1CCCN(c2ccnc(-c3cnc4cnc(C(F)F)cn34)n2)C1 [IV-138, (R)-(1-(2-(6-(Difluoromethyl)imidazo[1,2-a]pyrazin-3-yl)pyrimidin-4-yl)piperidin-3-yl)methanol]
		100 to 1000 nM	> 5000 nM	FC(F)c1cn2c(-c3nccc(N4CCC(c5c[nH]cn5)C4)n3)cnc2cn1 (stereo not shown) [IV-67, 3-(4-(3-(1H-Imidazol-4-yl)pyrrolidin-1-yl)pyrimidin-2-yl)-6-(difluoromethyl)imidazo[1,2-a]pyrazine]
		< 10 nM	< 500 nM	C[C@@H]1[C@H](c2cn[nH]c2)OCCN1c1ccnc(-c2cnc3cnc(C#N)cn23)n1 (racemic) [IV-280, Cis-3-(4-(3-Methyl-2-(1H-pyrazol-4-yl)morpholino)pyrimidin-2-yl)imidazo[1,2-a]pyrazine-6-carbonitrile]
		10 to 100 nM	500 to 5000 nM	OC1CCN(c2ccnc(-c3cnc4cnc(C(F)(F)F)cn34)n2)CC1c1cn[nH]c1 (single isomer, unassigned) [IV-624, 3-(1H-Pyrazol-4-yl)-1-(2-(6-(trifluoromethyl)imidazo[1,2-a]pyrazin-3-yl)pyrimidin-4-yl)piperidin-4-ol]
		100 to 1000 nM	> 5000 nM	FC(F)(F)c1cn2c(-c3nccc(N4CCCOCC4)n3)cnc2cn1 [IV-427, 4-(2-(6-(Trifluoromethyl)imidazo[1,2-a]pyrazin-3-yl)pyrimidin-4-yl)-1,4-oxazepane]
		< 10 nM	< 500 nM	CC1CN(c2ccnc(-c3cnc4cnc(Br)cn34)n2)C(C)C(c2cn[nH]c2)N1 (single isomer, unassigned) [IV-288, 6-Bromo-3-(4-(2,5-dimethyl-3-(1H-pyrazol-4-yl)piperazin-1-yl)pyrimidin-2-yl)imidazo[1,2-a]pyrazine]
		< 10 nM	500 to 5000 nM	CS(C)(=O)=NC1CC(c2cn[nH]c2)CN(c2ccnc(-c3cnc4cnc(C(F)(F)F)cn34)n2)C1 (single isomer, unassigned) [IV-399, ((5-(1H-Pyrazol-4-yl)-1-(2-(6-(trifluoromethyl)imidazo[1,2-a]pyrazin-3-yl)pyrimidin-4-yl)piperidin-3-yl)imino)dimethyl-λ^6-sulfanone]
		100 to 1000 nM	> 5000 nM	CS(=O)(=O)NCCC1CCCN(c2ccnc(-c3cnc4cnc(C(F)F)cn34)n2)C1 (stereo not shown) [IV-43, N-(2-(1-(2-(6-(Difluoromethyl)imidazo[1,2-a]pyrazin-3-yl)pyrimidin-4-yl)piperidin-3-yl)ethyl)methanesulfonamide]

Continued, compound first:

Structure (SMILES)	Ki (GCN2 kinase; [2])	IC50 ([1]; compounds of Formula II)	Ki (GCN2 kinase; [3])	IC50 ([1]; compounds of Formula IV)
O=C1CCN(c2cc(-c3cnc4ccc(C(F)F)nn34)ncn2)CCN1 [II-15, 1-(6-(6-(Difluoromethyl)imidazo[1,2-b]pyridazin-3-yl)pyrimidin-4-yl)-1,4-diazepan-5-one]	10 to 1000 nM	> 5000 nM		
CC1(F)CCN(c2cc(-c3cnc4ccc(C(F)F)nn34)ncn2)CC1CNS(C)(=O)=O (racemic) [II-350, N-((1-(6-(6-(Difluoromethyl)imidazo[1,2-b]pyridazin-3-yl)pyrimidin-4-yl)-4-fluoro-4-methylpiperidin-3-yl)methyl)methanesulfonamide]	< 10 nM	< 500 nM		
CC1CC(F)(F)C(CNS(C)(=O)=O)CN1c1cc(-c2cnc3ccc(C(F)F)nn23)ncn1 (stereo not shown) [II-434, N-((1-(6-(6-(Difluoromethyl)imidazo[1,2-b]pyridazin-3-yl)pyrimidin-4-yl)-4,4-difluoro-6-methylpiperidin-3-yl)methyl)methanesulfonamide]	10 to 1000 nM	> 5000 nM		
CNCCOc1cc(-c2cnc3ccc(C(F)F)nn23)cc(N2CCCC(CNS(C)(=O)=O)C2)n1 (stereo not shown) [II-74, N-((1-(4-(6-(Difluoromethyl)imidazo[1,2-b]pyridazin-3-yl)-6-(2-(methylamino)ethoxy)pyridin-2-yl)piperidin-3-yl)methyl)methanesulfonamide]	< 10 nM	500 to 5000 nM		
CS(=O)(=O)NCC1(O)CCN(c2cc(-c3cnc4ccc(C(F)F)nn34)ncn2)C1 (stereo not shown) [II-137, N-((1-(6-(6-(Difluoromethyl)imidazo[1,2-b]pyridazin-3-yl)pyrimidin-4-yl)-3-hydroxypyrrolidin-3-yl)methyl)methanesulfonamide]	10 to 1000 nM	> 5000 nM		
CS(=O)(=O)C1CCN(c2cc(-c3cnc4ccc(C(F)F)nn34)ncn2)C1 (stereo not shown) [II-395, 6-(Difluoromethyl)-3-(6-(3-(methylsulfonyl)pyrrolidin-1-yl)pyrimidin-4-yl)imidazo[1,2-b]pyridazine]	10 to 1000 nM	> 5000 nM		
Cc1ncc(-c2cnc3ccc(C(F)F)nn23)cc1N1CCCC(CNS(C)(=O)=O)C1 (stereo not shown) [II-49, N-((1-(5-(6-(Difluoromethyl)imidazo[1,2-b]pyridazin-3-yl)-2-methylpyridin-3-yl)piperidin-3-yl)methyl)methanesulfonamide]	10 to 1000 nM	500 to 5000 nM		
CS(=O)(=O)NC(=O)C1CCCN(c2cc(-c3cnc4ccc(C(F)F)nn34)ncn2)C1 (stereo not shown) [II-460, 1-(6-(6-(Difluoromethyl)imidazo[1,2-b]pyridazin-3-yl)pyrimidin-4-yl)-N-(methylsulfonyl)piperidine-3-carboxamide]	10 to 1000 nM	> 5000 nM		
CS(=O)(=O)CC1CCCN(c2cc(-c3cnc4ccc(C(F)(F)F)nn34)ccn2)C1 (stereo not shown) [II-227, 3-(2-(3-((Methylsulfonyl)methyl)piperidin-1-yl)pyridin-4-yl)-6-(trifluoromethyl)imidazo[1,2-b]pyridazine]	10 to 1000 nM	> 5000 nM		
CS(=O)(=O)NCC1CCCN(c2cc(-c3cnc4ccc(C(F)F)nn34)cc(OC3CNC3)n2)C1 (stereo not shown) [II-84, N-((1-(6-(Azetidin-3-yloxy)-4-(6-(difluoromethyl)imidazo[1,2-b]pyridazin-3-yl)pyridin-2-yl)piperidin-3-yl)methyl)methanesulfonamide]	< 10 nM	500 to 5000 nM		
CS(=O)(=O)N1CCN(C(=O)C2CCCN(c3cc(-c4cnc5ccc(C(F)F)nn45)ncn3)C2)CC1 (stereo not shown) [II-206, (1-(6-(6-(Difluoromethyl)imidazo[1,2-b]pyridazin-3-yl)pyrimidin-4-yl)piperidin-3-yl)(4-(methylsulfonyl)piperazin-1-yl)methanone]	10 to 1000 nM	> 5000 nM		
FC(F)c1ccc2ncc(-c3cc(N4CCOC5CC54)ncn3)n2n1 (stereo not shown) [II-301, 5-(6-(6-(Difluoromethyl)imidazo[1,2-b]pyridazin-3-yl)pyrimidin-4-yl)-2-oxa-5-azabicyclo[4.1.0]heptane]	10 to 1000 nM	500 to 5000 nM		
OC1([C@@H]2CN(c3cc(-c4cnc5ccc(C(F)F)nn45)ncn3)CCN2)CC1 [II-454, (S)-1-(4-(6-(6-(Difluoromethyl)imidazo[1,2-b]pyridazin-3-yl)pyrimidin-4-yl)piperazin-2-yl)cyclopropan-1-ol]	10 to 1000 nM	> 5000 nM		
